± gives the uncertainty stated by the source.
Assay: xn = mol fraction of the nth substance listed

CC1=CCC(=C(C)C)CC1 + Brc1ccccc1
viscosity [mPa·s], 101 kPa
Conditions	x1 = 0.0687	x1 = 0.1424	x1 = 0.2216	x1 = 0.307	x1 = 0.3992	x1 = 0.4992	x1 = 0.6079	x1 = 0.7266	x1 = 0.8567
303.15 K	0.993 ± 0.021	1 ± 0.022	1.011 ± 0.024	1.023 ± 0.027	1.032 ± 0.03	1.036 ± 0.034	1.033 ± 0.038	1.023 ± 0.043	1.01 ± 0.048
308.15 K	0.942 ± 0.02	0.948 ± 0.021	0.957 ± 0.023	0.967 ± 0.025	0.975 ± 0.029	0.979 ± 0.032	0.973 ± 0.036	0.962 ± 0.04	0.947 ± 0.045
313.15 K	0.893 ± 0.019	0.897 ± 0.02	0.905 ± 0.022	0.913 ± 0.024	0.919 ± 0.027	0.922 ± 0.03	0.915 ± 0.034	0.903 ± 0.038	0.887 ± 0.042

CCc1ccccc1 + C1CCCCC1
303.15 K, 101 kPa
Conditions	viscosity [mPa·s]
x2 = 0.1	0.5951 ± 0.0042
x2 = 0.199	0.5943 ± 0.0042
x2 = 0.2994	0.5972 ± 0.0042
x2 = 0.3986	0.6025 ± 0.0042
x2 = 0.5008	0.6166 ± 0.0043
x2 = 0.5984	0.6366 ± 0.0044
x2 = 0.7004	0.6596 ± 0.0045
x2 = 0.798	0.7008 ± 0.0046
x2 = 0.9002	0.7571 ± 0.0049

COC(C)(C)C + C1CCCCC1
303.15 K, 101 kPa
Conditions	viscosity [mPa·s]
x1 = 0.132	0.693 ± 0.005
x1 = 0.2612	0.609 ± 0.004
x1 = 0.3989	0.536 ± 0.004
x1 = 0.5216	0.485 ± 0.004
x1 = 0.5654	0.466 ± 0.004
x1 = 0.7149	0.42 ± 0.003
x1 = 0.8393	0.384 ± 0.003

Clc1ccccc1 + C1CCCCC1
Conditions	viscosity [mPa·s]
293.65 K, 101.33 kPa, x2 = 0.497	0.834 ± 0.0097
293.85 K, 101.33 kPa, x2 = 0.7	0.8665 ± 0.01
294.25 K, 101.33 kPa, x2 = 0.3	0.8152 ± 0.0094
294.55 K, 101.33 kPa, x2 = 0.4	0.819 ± 0.0095
294.75 K, 101.33 kPa, x2 = 0.2	0.8056 ± 0.0093
294.85 K, 101.33 kPa, x2 = 0.8	0.889 ± 0.01
295.15 K, 101.33 kPa, x2 = 0.6	0.8189 ± 0.0096
297.15 K, 101.33 kPa, x2 = 0.1	0.7894 ± 0.0092
303.05 K, 101.33 kPa, x2 = 0.3	0.738 ± 0.0085
303.25 K, 101.33 kPa, x2 = 0.7	0.7564 ± 0.0088
303.25 K, 101.33 kPa, x2 = 0.8	0.7829 ± 0.0091
303.45 K, 101.33 kPa, x2 = 0.1	0.731 ± 0.0084
303.75 K, 101.33 kPa, x2 = 0.2	0.7191 ± 0.0083
303.85 K, 101.33 kPa, x2 = 0.4	0.7276 ± 0.0084
303.85 K, 101.33 kPa, x2 = 0.6	0.7319 ± 0.0088
303.95 K, 101.33 kPa, x2 = 0.497	0.7249 ± 0.0084
308.15 K, 101 kPa, x2 = 0.0465	0.6656 ± 0.011
308.15 K, 101 kPa, x2 = 0.1818	0.6489 ± 0.011
308.15 K, 101 kPa, x2 = 0.2516	0.6418 ± 0.011
308.15 K, 101 kPa, x2 = 0.3629	0.6379 ± 0.011
308.15 K, 101 kPa, x2 = 0.4845	0.6421 ± 0.011
308.15 K, 101 kPa, x2 = 0.5788	0.6489 ± 0.011
308.15 K, 101 kPa, x2 = 0.6926	0.6668 ± 0.011
308.15 K, 101 kPa, x2 = 0.807	0.6991 ± 0.012
308.15 K, 101 kPa, x2 = 0.9588	0.7386 ± 0.013
312.65 K, 101.33 kPa, x2 = 0.1	0.6777 ± 0.0078
312.75 K, 101.33 kPa, x2 = 0.497	0.6502 ± 0.0075
312.75 K, 101.33 kPa, x2 = 0.7	0.666 ± 0.0077
312.95 K, 101.33 kPa, x2 = 0.4	0.6505 ± 0.0075
312.95 K, 101.33 kPa, x2 = 0.6	0.5637 ± 0.0066
313.15 K, 101 kPa, x2 = 0.0465	0.6298 ± 0.011
313.15 K, 101 kPa, x2 = 0.1818	0.6122 ± 0.011
313.15 K, 101 kPa, x2 = 0.2516	0.6045 ± 0.011
313.15 K, 101 kPa, x2 = 0.3629	0.5973 ± 0.01
313.15 K, 101 kPa, x2 = 0.4845	0.601 ± 0.01
313.15 K, 101 kPa, x2 = 0.5788	0.6074 ± 0.011
313.15 K, 101 kPa, x2 = 0.6926	0.6254 ± 0.011
313.15 K, 101 kPa, x2 = 0.807	0.6532 ± 0.011
313.15 K, 101 kPa, x2 = 0.9588	0.689 ± 0.012
313.25 K, 101.33 kPa, x2 = 0.2	0.6448 ± 0.0074
313.45 K, 101.33 kPa, x2 = 0.3	0.6518 ± 0.0075
313.75 K, 101.33 kPa, x2 = 0.8	0.6758 ± 0.0079
322.55 K, 101.33 kPa, x2 = 0.497	0.5847 ± 0.0068
322.55 K, 101.33 kPa, x2 = 0.6	0.585 ± 0.0066
322.75 K, 101.33 kPa, x2 = 0.3	0.591 ± 0.0068
322.75 K, 101.33 kPa, x2 = 0.4	0.5803 ± 0.0067
322.85 K, 101.33 kPa, x2 = 0.7	0.5926 ± 0.0069
322.85 K, 101.33 kPa, x2 = 0.8	0.6059 ± 0.007

C=CC(=O)OCC + C1CCOC1
viscosity [mPa·s], 101 kPa
Conditions	293.15 K	298.15 K	303.15 K	308.15 K	313.15 K	318.15 K
x2 = 0.0825	0.5547 ± 0.023	0.5211 ± 0.021	0.4896 ± 0.02	0.4554 ± 0.019	0.4158 ± 0.017	0.3758 ± 0.015
x2 = 0.167	0.5422 ± 0.022	0.5102 ± 0.021	0.4802 ± 0.02	0.4474 ± 0.018	0.4096 ± 0.017	0.3711 ± 0.015
x2 = 0.2302	0.5338 ± 0.022	0.503 ± 0.021	0.4739 ± 0.019	0.4421 ± 0.018	0.4055 ± 0.017	0.3682 ± 0.015
x2 = 0.316	0.5237 ± 0.021	0.4945 ± 0.02	0.4666 ± 0.019	0.436 ± 0.018	0.401 ± 0.016	0.3651 ± 0.015
x2 = 0.3892	0.5163 ± 0.021	0.4883 ± 0.02	0.4613 ± 0.019	0.4317 ± 0.018	0.3978 ± 0.016	0.3631 ± 0.015
x2 = 0.4603	0.5102 ± 0.021	0.4832 ± 0.02	0.457 ± 0.019	0.4283 ± 0.017	0.3954 ± 0.016	0.3617 ± 0.015
x2 = 0.5286	0.5051 ± 0.021	0.4791 ± 0.019	0.4535 ± 0.018	0.4256 ± 0.017	0.3938 ± 0.016	0.361 ± 0.015
x2 = 0.5947	0.5011 ± 0.02	0.4759 ± 0.019	0.4509 ± 0.018	0.4236 ± 0.017	0.3926 ± 0.016	0.3607 ± 0.015
x2 = 0.6605	0.4979 ± 0.02	0.4734 ± 0.019	0.4489 ± 0.018	0.4222 ± 0.017	0.392 ± 0.016	0.3609 ± 0.015
x2 = 0.7283	0.4954 ± 0.02	0.4716 ± 0.019	0.4475 ± 0.018	0.4213 ± 0.017	0.3919 ± 0.016	0.3615 ± 0.015
x2 = 0.7874	0.4938 ± 0.02	0.4707 ± 0.019	0.4468 ± 0.018	0.421 ± 0.017	0.3922 ± 0.016	0.3624 ± 0.015
x2 = 0.8689	0.4927 ± 0.02	0.4702 ± 0.019	0.4466 ± 0.018	0.4212 ± 0.017	0.3931 ± 0.016	0.3642 ± 0.015
x2 = 0.936	0.4926 ± 0.02	0.4705 ± 0.019	0.4471 ± 0.018	0.4219 ± 0.017	0.3944 ± 0.016	0.3661 ± 0.015

Clc1ccccc1 + C=C(C)C(=O)OC
303.15 K, 101 kPa
Conditions	viscosity [mPa·s]
x2 = 0.099	0.6943 ± 0.0067
x2 = 0.1971	0.6738 ± 0.0066
x2 = 0.3987	0.6345 ± 0.0064
x2 = 0.4982	0.6147 ± 0.0063
x2 = 0.6984	0.5743 ± 0.0061
x2 = 0.7989	0.5538 ± 0.006
x2 = 0.8987	0.5349 ± 0.0059

Clc1cccc2ccccc12 + C=Cc1ccccc1
viscosity [mPa·s], 101.33 kPa
Conditions	x2 = 0.1076	x2 = 0.2005	x2 = 0.301	x2 = 0.4032	x2 = 0.5003	x2 = 0.6015	x2 = 0.684	x2 = 0.7992	x2 = 0.9033
298.15 K	2.356 ± 0.054	2.07 ± 0.048	1.778 ± 0.041	1.549 ± 0.036	1.379 ± 0.033	1.216 ± 0.029	1.108 ± 0.027	0.9675 ± 0.024	0.8331 ± 0.021
303.15 K	2.103 ± 0.048	1.864 ± 0.043	1.617 ± 0.038	1.412 ± 0.034	1.259 ± 0.03	1.115 ± 0.027	1.013 ± 0.025	0.91 ± 0.023	0.8013 ± 0.021
308.15 K	1.884 ± 0.044	1.677 ± 0.039	1.47 ± 0.035	1.283 ± 0.031	1.152 ± 0.028	1.036 ± 0.025	0.9455 ± 0.024	0.8446 ± 0.021	0.7413 ± 0.019

CCc1ccccc1 + CC1COC(=O)O1
viscosity [mPa·s], 101 kPa
Conditions	298.15 K	308.15 K
x2 = 0.0294	0.6462 ± 0.026	0.5585 ± 0.023
x2 = 0.042	0.6512 ± 0.026	0.5634 ± 0.023
x2 = 0.0729	0.6609 ± 0.026	0.5767 ± 0.024
x2 = 0.0821	0.6655 ± 0.026	0.5811 ± 0.024
x2 = 0.1013	0.6735 ± 0.027	0.5908 ± 0.024
x2 = 0.2023	0.7164 ± 0.028	0.6552 ± 0.026
x2 = 0.3008	0.8062 ± 0.031	0.7411 ± 0.029
x2 = 0.4012	0.9344 ± 0.035	0.8533 ± 0.033
x2 = 0.5001	1.098 ± 0.041	0.9894 ± 0.037
x2 = 0.6001	1.302 ± 0.047	1.154 ± 0.042
x2 = 0.7001	1.544 ± 0.055	1.345 ± 0.049
x2 = 0.8009	1.827 ± 0.064	1.567 ± 0.056
x2 = 0.8992	2.14 ± 0.074	1.811 ± 0.064
